Where a name gives a salt, the structure may show the parent alone.
Molecular target: T1, human hNET (Homo sapiens, UniProt P23975)
T1 construct: expressed in transfected cells
Assay: Norepinephrine (NE) uptake assay in MDCK-Net6 cells
Format: cell-based
Conditions: 1 μM test compound, [3H]NE uptake
Protocol: MDCK-Net6 cells, stably transfected with human hNET (Pacholczyk, T., R. D. Blakely, and S. G. Amara, Nature, 1991, 350(6316): p. 350-4) were cultured in growth medium containing high glucose DMEM (Gibco, Cat. No. 11995), 10% FBS (dialyzed, heat-inactivated, US Bio-Technologies, Lot FBD1129HI) and 500 μg/ml G418 (Gibco, Cat. No. 10131). Cells were plated at 300,000/T75 flask and cells were split twice weekly. The JAR cell line (human placental choriocarcinoma) was purchased from ATCC (Cat. No. HTB-144). The cells were cultured in growth medium containing RPMI 1640 (Gibco, Cat. No. 72400), 10% FBS (Irvine, Cat. No. 3000), 1% sodium pyruvate (Gibco, Cat. No. 1136) and 0.25% glucose. Cells were plated at 250,000 cells/T75 flask and split twice weekly. For all assays, cells were plated in Wallac 96-well sterile plates (PerkinElmer, Cat. No. 3983498).
On day 1, cells were plated at 3,000 cells/well in growth medium and maintained in a cell incubator (37° C., 5% CO2). On day 2, growth medium was replaced with 200 μl of assay buffer (25 mM HEPES; 120 mM NaCl; 5 mM KCl; 2.5 mM CaCl2; 1.2 mM MgSO4; 2 mg/ml glucose (pH 7.4, 37° C.)) containing 0.2 mg/ml ascorbic acid and 10 μM pargyline. Plates containing cells with 200 μl of assay buffer were equilibrated for 10 minutes at 37° C. prior to addition of compounds. A stock solution of desipramine was prepared in DMSO (10 mM) and delivered to triplicate wells containing cells for a final test concentration of 1 μM. Data from these wells were used to define non-specific NE uptake (minimum NE uptake). Test compounds were prepared in DMSO (10 mM) and diluted in assay buffer according to test range (1 to 10,000 nM). Twenty-five microliters of assay buffer (maximum NE uptake) or test compound were added directly to triplicate wells containing cells in 200 μl of assay buffer. The cells in assay buffer with test compounds were incubated for 20 minutes at 37° C. To initiate the NE uptake, [^3H]NE diluted in assay buffer (120 nM final assay concentration) was delivered in 25 μl aliquots to each well and the plates were incubated for 5 minutes (37° C.). The reaction was terminated by decanting the supernatant from the plate. The plates containing cells were washed twice with 200 μl assay buffer (37° C.) to remove free radioligand. The plates were then inverted, left to dry for 2 minutes, then reinverted and air-dried for an additional 10 minutes. The cells were lysed in 25 μl of 0.25 N NaOH solution (4° C.), placed on a shake table and vigorously shaken for 5 minutes. After cell lysis, 75 μl of scintillation cocktail was added to each well and the plates were sealed with film tape. The plates were returned to the shake table and vigorously shaken for a minimum of 10 minutes to ensure adequate partitioning of organic and aqueous solutions. The plates were counted in a Wallac Microbeta counter (PerkinElmer) to collect the raw cpm data.
For each experiment, a data stream of cpm values collected from the Wallac Microbeta counter was downloaded to a Microsoft Excel statistical application program. Calculations of EC50 values were made using the transformed-both-sides logistic dose response program written by Wyeth Biometrics Department. The statistical program uses mean cpm values from wells representing maximum binding or uptake (assay buffer) and mean cpm values from wells representing minimum binding or uptake ((1 μM desipramine (hNET) or 1 μM paroxetine (hSERT)). Estimation of the EC50 value was completed on a log scale and the line was fit between the maximum and minimum binding or uptake values. All graphic data representation was generated by normalizing each data point to a mean percent based on the maximum and minimum binding or uptake values. The EC50 values reported from multiple experiments were calculated by pooling the raw data from each experiment and analyzing the pooled data as one experiment.

T1 sequence (P23975 whole entry): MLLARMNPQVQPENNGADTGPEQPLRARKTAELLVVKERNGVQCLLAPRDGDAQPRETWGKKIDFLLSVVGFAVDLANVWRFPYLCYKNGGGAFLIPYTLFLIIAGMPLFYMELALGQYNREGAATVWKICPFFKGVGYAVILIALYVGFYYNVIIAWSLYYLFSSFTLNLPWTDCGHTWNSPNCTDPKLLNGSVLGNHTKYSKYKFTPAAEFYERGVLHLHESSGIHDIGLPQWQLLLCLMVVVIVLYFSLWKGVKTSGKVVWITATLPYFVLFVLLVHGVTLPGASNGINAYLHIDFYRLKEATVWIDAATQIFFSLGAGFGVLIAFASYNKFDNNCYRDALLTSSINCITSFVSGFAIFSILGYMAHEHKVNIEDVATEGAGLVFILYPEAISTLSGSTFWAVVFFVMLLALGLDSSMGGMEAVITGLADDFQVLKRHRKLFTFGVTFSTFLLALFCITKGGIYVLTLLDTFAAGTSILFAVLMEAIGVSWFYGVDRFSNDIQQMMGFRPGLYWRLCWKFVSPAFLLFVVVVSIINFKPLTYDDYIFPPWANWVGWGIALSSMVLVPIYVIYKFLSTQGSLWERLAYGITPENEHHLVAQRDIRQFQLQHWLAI

Row | inhibition at 1 µM [%] | SMILES
1 | 89 | CCC(O)(CC)C(CN1CCNCC1)c1cccc(Br)c1 (centres unmarked) [Example 50, 2-(3-bromophenyl)-3-ethyl-1-piperazin-1-ylpentan-3-ol dihydrochloride]
2 | 44 | CCCC(O)(CCC)C(CN1CCNCC1)c1cccc(Cl)c1 (centres unmarked) [Example 51, 4-[1-(3-chlorophenyl)-2-piperazin-1-ylethyl]heptan-4-ol dihydrochloride]
3 | 37 | CCC(O)(CC)C(CN1CCNCC1)c1cccc(Cl)c1 (centres unmarked) [Example 52, 2-(3-chlorophenyl)-3-ethyl-1-piperazin-1-ylpentan-3-ol dihydrochloride]
4 | 12 | CCC(O)(CC)C(CN1CCNCC1)c1ccc(OC)c(Br)c1 (centres unmarked) [Example 65, 2-(3-bromo-4-methoxyphenyl)-3-ethyl-1-piperazin-1-ylpentan-3-ol dihydrochloride]
5 | 31 | OC1(C(CN2CCNCC2)c2cccc(Cl)c2)CCOCC1 (centres unmarked) [Example 77, 4-[1-(3-chlorophenyl)-2-piperazin-1-ylethyl]tetrahydro-2H-pyran-4-ol dihydrochloride]
6 | 18 | CCCC(O)(CCC)C(CN1CCNCC1)c1cccc(Br)c1 (centres unmarked) [Example 81, 4-[1-(3-bromophenyl)-2-piperazin-1-ylethyl]heptan-4-ol dihydrochloride]
7 | 19 | CCCC(O)(CCC)C(CN1CCN(C)CC1)c1cccc(Br)c1 (centres unmarked) [Example 82, 4-[1-(3-bromophenyl)-2-(4-methylpiperazin-1-yl)ethyl]heptan-4-ol dihydrochloride]

Further lines, the molecule ahead of its results:

Row | SMILES | inhibition at 1 µM [%]
8 | CN1CCC(O)(C(CN2CCNCC2)c2ccc(Cl)c(Cl)c2)CC1 (centres unmarked) [Example 37, 4-[1-(3,4-dichlorophenyl)-2-piperazin-1-ylethyl]-1-methylpiperidin-4-ol trihydrochloride] | 57
9 | CN1CCC(O)(C(CN2CCNCC2)c2cccc(Br)c2)CC1 (centres unmarked) [Example 58, 4-[1-(3-bromophenyl)-2-piperazin-1-ylethyl]-1-methylpiperidin-4-ol dihydrochloride] | 35
10 | CCC(O)(CC)C(CN1CCN(C)CC1)c1ccc(OC)c(Br)c1 (centres unmarked) [Example 66, 2-(3-bromo-4-methoxyphenyl)-3-ethyl-1-(4-methylpiperazin-1-yl)pentan-3-ol dihydrochloride] | 26
11 | OC1(C(CN2CCNCC2)c2cccc(Cl)c2)CCCC2CCCCC21 (centres unmarked) [Example 72, 1-[1-(3-chlorophenyl)-2-piperazin-1-ylethyl]decahydronaphthalen-1-ol dihydrochloride] | 25
12 | COc1ccc(C(CN2CCN(C)CC2)C2(O)CCC(C(C)(C)C)CC2)cc1Br (centres unmarked) [Example 73, 1-[1-(3-bromo-4-methoxyphenyl)-2-(4-methylpiperazin-1-yl)ethyl]-4-tert-butylcyclohexano dihydrochloride] | 25
13 | OC1(C(CN2CCNCC2)c2cccc(Cl)c2)CCC2CCCCC2C1 (centres unmarked) [Example 74, 2-[1-(3-chlorophenyl)-2-piperazin-1-ylethyl]decahydronaphthalen-2-ol dihydrochloride] | 24
14 | CN1CCN(CC(c2cccc(Cl)c2)C2(O)CCOCC2)CC1 (centres unmarked) [Example 78, 4-[1-(3-chlorophenyl)-2-(4-methylpiperazin-1-yl)ethyl]tetrahydro-2H-pyran-4-ol dihydrochloride] | 22
15 | CN1CCN(CC(c2cccc(Br)c2)C2(O)CCC(C(C)(C)C)CC2)CC1 (centres unmarked) [Example 79, 1-[1-(3-bromophenyl)-2-(4-methylpiperazin-1-yl)ethyl]4-tert-butylcyclohexanol dihydrochloride] | 20
16 | COc1ccc(C(CN2CCNCC2)C2(O)CCC(C(C)(C)C)CC2)cc1Br (centres unmarked) [Example 84, 1-[1-(3-bromo-4-methoxyphenyl)-2-piperazin-1-ylethyl]4-tert-butylcyclohexanol dihydrochloride] | 18
17 | CN1CCN(CC(c2cccc(Cl)c2)C(O)(C2CC2)C2CC2)CC1 (centres unmarked) [Example 86, 2-(3-chlorophenyl)-1,1-dicyclopropyl-3-(4-methylpiperazin-1-yl)propan-1-ol dihydrochloride] | 16
